Measured values reported in US20250230193A1, “CYCLIC COMPOUND HAVING SELECTIVE KRAS INHIBITORY EFFECT ON HRAS AND NRAS” (CHUGAI SEIYAKU KABUSHIKI KAISHA, priority 2022, published 2025).
Where a SMILES comes first, the peptide text is derived from it. Bridges are numbered along the chain shown (N, C = ends). [ ]: non-standard residue; d: D form. The star is where a group is joined. hPhe(3-Cl-4-CF3) = N[C@@H](CCc1ccc(C(F)(F)F)c(Cl)c1)C(=O)O; NPrPhe(4-CF3) = CCCN[C@@H](Cc1ccc(C(F)(F)F)cc1)C(=O)O; NMeGly(cPent) = CN[C@H](C(=O)O)C1CCCC1; Pro(4,4-F2) = O=C(O)[C@@H]1CC(F)(F)CN1; NMeGly(cBu) = CN[C@H](C(=O)O)C1CCC1; NMeD = CN[C@@H](CC(=O)O)C(=O)O; Morpholide = C1CN(*)CCO1; Ac5c = NC1(C(=O)O)CCCC1; Sar = CNCC(=O)O

Experiments:
[1] = target: GDP-bound NRAS wild-type protein (Homo sapiens, UniProt P01111); assay: Binding to NRAS by surface plasmon resonance (SPR), Single Cycle Kinetics; settings: for NRAS/KRAS (ratio of KD value for NRAS to KD value for KRAS) / NRAS/KRAS (ratio of KD value with respect to NRAS to KD value with respect to KRAS): GDP-bound NRAS wild-type vs GDP-bound KRAS wild-type
Chain of GDP-bound NRAS wild-type protein (P01111 whole entry): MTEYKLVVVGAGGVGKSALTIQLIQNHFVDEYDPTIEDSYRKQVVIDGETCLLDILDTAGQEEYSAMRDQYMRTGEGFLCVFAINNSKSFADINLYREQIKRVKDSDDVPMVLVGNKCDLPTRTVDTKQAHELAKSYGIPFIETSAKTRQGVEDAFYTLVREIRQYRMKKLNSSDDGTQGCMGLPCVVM

[2] = target: GDP-bound HRAS wild-type protein (Homo sapiens, UniProt P01112); assay: Binding to HRAS by surface plasmon resonance (SPR), Single Cycle Kinetics; settings: for HRAS/KRAS (ratio of KD value for HRAS to KD value for KRAS) / HRAS/KRAS (ratio of KD value with respect to HRAS to KD value with respect to KRAS): GDP-bound HRAS wild-type vs GDP-bound KRAS wild-type
Chain of GDP-bound HRAS wild-type protein (P01112 whole entry): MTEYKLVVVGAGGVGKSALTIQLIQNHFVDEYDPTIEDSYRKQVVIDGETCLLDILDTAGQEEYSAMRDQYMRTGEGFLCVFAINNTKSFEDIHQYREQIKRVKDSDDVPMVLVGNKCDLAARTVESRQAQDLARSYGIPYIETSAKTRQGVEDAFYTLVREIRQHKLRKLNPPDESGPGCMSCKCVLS

[3] = KD ratio NRAS/KRAS, class symbols
[4] = KD ratio HRAS/KRAS, class symbols

In the case of `CCCN1C(=O)CN(C)C(=O)CN(C)C(=O)[C@H]([C@@H](C)CC)NC(=O)[C@H](C2CCC2)N(C)C(=O)C[C@@H](C(=O)N2CCOCC2)N(C)C(=O)[C@H](C2CCCC2)N(C)C(=O)C2(CCCC2)NC(=O)[C@@H]2CC(F)(F)CN2C(=O)[C@H](CCc2ccc(C(F)(F)F)c(Cl)c2)NC(=O)CN(C)C(=O)[C@@H]1Cc1ccc(C(F)(F)F)cc1` [PP0200] ([NMeGly(cBu)]I[Sar][Sar][NPrPhe(4-CF3)][Sar][hPhe(3-Cl-4-CF3)][Pro(4,4-F2)][Ac5c][NMeGly(cPent)][NMeD]-Morpholide; lactam N-11), the “NRAS/KRAS (ratio of KD for GDP-bound NRAS wild-type to KD for KRAS)” value ([1]; KD ratio NRAS/KRAS, SPR) is reported as “C (A compound having a KD ratio of 0.1 or more and less than 3 is denoted as C)” and the “HRAS/KRAS (ratio of KD for GDP-bound HRAS wild-type to KD for KRAS)” value ([2]; KD ratio HRAS/KRAS, SPR) is reported as “C (A compound having a KD ratio of 0.1 or more and less than 3 is denoted as C)”.

In the case of `CCCN(C)C(=O)[C@@H]1CC(=O)N(C)[C@@H](CC2CC2)C(=O)N[C@@H]([C@@H](C)CC)C(=O)N(C)CC(=O)N(C)[C@H]2C/C=C\CCN(C2=O)[C@@H](Cc2ccc(C(F)(F)F)cc2)C(=O)N(C)CC(=O)N[C@@H](CCc2cc(F)c(C(F)(F)F)c(F)c2)C(=O)N2C[C@H](F)C[C@H]2C(=O)NC2(CC(C)(C)C2)C(=O)N(C)[C@@H](C2CCCC2)C(=O)N1C` [PP1665], the “NRAS/KRAS (ratio of KD value for NRAS to KD value for KRAS)” value ([1]; KD ratio, SPR) is reported as “AA (a compound having 20 or more is denoted as AA)” and the “HRAS/KRAS (ratio of KD value for HRAS to KD value for KRAS)” value ([2]; KD ratio, SPR) is reported as “A (a compound having 10 or more and less than 20 is denoted as A)”.

With `CCO[C@@H]1C[C@H]2C(=O)NC3(CCC3)C(=O)N(C)[C@@H](C3CCCC3)C(=O)N(C)[C@H](C(=O)N(C)C)CC(=O)N(C)[C@@H](CC3CCCC3)C(=O)N[C@@H]([C@@H](C)CC)C(=O)N(C)CC(=O)N(C)[C@H]3C/C=C\CCN(C3=O)[C@@H](Cc3ccc(C)cc3)C(=O)N(C)CC(=O)N[C@@H](CCc3ccc(C(F)(F)F)c(C4CC4)c3)C(=O)N2C1` [PP2681] the “NRAS/KRAS (ratio of KD value with respect to GDP-bound NRAS wild-type protein to KD value with respect to KRAS)” value [1, 3] was “A (a compound having 10 or more and less than 20 is denoted as A)” and the “HRAS/KRAS (ratio of KD value with respect to GDP-bound HRAS wild-type protein to KD value with respect to KRAS)” value [2, 4] was “A (a compound having 10 or more and less than 20 is denoted as A)”.

For `CC[C@H](C)[C@@H]1NC(=O)[C@H](CC(C)C)N(C)C(=O)C[C@@H](C(=O)N2CCOCC2)N(C)C(=O)[C@H](C2CCCC2)N(C)C(=O)C2(CCC2)NC(=O)[C@@H]2C[C@@H](OCC(F)F)CN2C(=O)[C@H](CCc2cc(F)c(C(F)(F)F)c(F)c2)NC(=O)CN(C)C(=O)[C@H](Cc2ccc(C(F)(F)F)cc2)N2CCCC[C@@H](C2=O)N(C)C(=O)CN(C)C1=O` [PP1002], the “NRAS/KRAS (ratio of KD value with respect to NRAS to KD value with respect to KRAS)” value ([1]; KD ratio, SPR) was “B (a compound having 3 or more and less than 10 is denoted as B)” and the “HRAS/KRAS (ratio of KD value with respect to HRAS to KD value with respect to KRAS)” value ([2]; KD ratio, SPR) was “B (a compound having 3 or more and less than 10 is denoted as B)”.

With `CC[C@H](C)[C@@H]1NC(=O)[C@@H]2CCCCCCc3ccc(cc3)C[C@@H](C(=O)N(C)CC(=O)N[C@@H](CCc3ccc(C(F)(F)F)c(OC)c3)C(=O)N3C[C@H](OC4CCC4)C[C@H]3C(=O)NC3(CC(C)(C)C3)C(=O)N(C)[C@@H](C3CCCC3)C(=O)N(C)[C@H](C(=O)N(C)C)CC(=O)N2C)N2CC/C=C\C[C@@H](C2=O)N(C)C(=O)CN(C)C1=O` [PP3068] the “NRAS/KRAS (ratio of KD value with respect to GDP-bound NRAS wild-type protein to KD value with respect to KRAS)” value ([1]; KD ratio NRAS/KRAS, SPR, GDP-bound wild-type proteins) was “A (a compound having 10 or more and less than 20 is denoted as A)” and the “HRAS/KRAS (ratio of KD value with respect to GDP-bound HRAS wild-type protein to KD value with respect to KRAS)” value ([2]; KD ratio HRAS/KRAS, SPR, GDP-bound wild-type proteins) was “B (a compound having 3 or more and less than 10 is denoted as B)”.

`CCO[C@@H]1C[C@H]2C(=O)NC3(CCC3)C(=O)N(C)[C@@H](C3CCCC3)C(=O)N(C)[C@H](C(=O)N(C)C)CC(=O)N(C)[C@@H](CC)C(=O)N[C@@H]([C@@H](C)CC)C(=O)N(C)CC(=O)N(C)[C@H]3C/C=C\CCN(C3=O)[C@@H](Cc3ccc(C(F)(F)F)cc3)C(=O)N(C)CC(=O)N[C@@H](CCc3cc(F)c(C(F)(F)F)c(F)c3)C(=O)N2C1` [PP0824] was tested, and the “NRAS/KRAS (ratio of KD value with respect to NRAS to KD value with respect to KRAS)” value ([1]; KD ratio, SPR) was “A (a compound having 10 or more and less than 20 is denoted as A)” and the “HRAS/KRAS (ratio of KD value with respect to HRAS to KD value with respect to KRAS)” value ([2]; KD ratio, SPR) was “A (a compound having 10 or more and less than 20 is denoted as A)”.

For `CCO[C@@H]1C[C@H]2C(=O)NC3(CC(C)(C)C3)C(=O)N(C)[C@@H](C(CC)CC)C(=O)N(C)[C@H](C(=O)N(C)C)CC(=O)N(C)[C@@H](CC)C(=O)N[C@@H]([C@@H](C)CC)C(=O)N(C)CC(=O)N(C)[C@H]3C/C=C\CCN(C3=O)[C@@H](Cc3ccc(C)cc3)C(=O)N(C)CC(=O)N[C@@H](CCc3ccc(C(F)(F)F)c(OC)c3)C(=O)N2C1` [PP2170], the “NRAS/KRAS (ratio of KD value with respect to NRAS to KD value with respect to KRAS)” value ([1]; SPR) was “A (a compound having 10 or more and less than 20 is denoted as A)” and the “HRAS/KRAS (ratio of KD value with respect to HRAS to KD value with respect to KRAS)” value ([2]; SPR) was “A (a compound having 10 or more and less than 20 is denoted as A)”.

For `CC[C@H](C)[C@@H]1NC(=O)[C@H](CC(C)C)N(C)C(=O)C[C@@H](C(=O)N(C)C)N(C)C(=O)[C@H](C2CCCC2)N(C)C(=O)C2(CCC2)NC(=O)[C@@H]2C[C@H](C)CN2C(=O)[C@H](CCc2ccc(C(F)(F)F)c(Cl)c2)NC(=O)CN(C)C(=O)[C@H](Cc2ccc(C)cc2)N2CC/C=C\C[C@@H](C2=O)N(C)C(=O)CN(C)C1=O` [PP1852], the “NRAS/KRAS (ratio of KD value for NRAS to KD value for KRAS)” value ([1]; KD ratio, SPR) was “A (a compound having 10 or more and less than 20 is denoted as A)” and the “HRAS/KRAS (ratio of KD value for HRAS to KD value for KRAS)” value ([2]; KD ratio, SPR) was “B (a compound having 3 or more and less than 10 is denoted as B)”.

`CCC[C@H]1C(=O)N[C@@H]([C@@H](C)CC)C(=O)N2CCC[C@H]2C(=O)N(C)[C@H]2C/C=C\CCN(C2=O)[C@@H](Cc2ccc(C(F)F)cc2)C(=O)N(C)CC(=O)N[C@@H](CCc2ccc(Cl)c(Cl)c2)C(=O)N2C[C@H](OC(C)C)C[C@H]2C(=O)NC2(CC(C)(C)C2)C(=O)N(C)[C@@H](C(CC)CC)C(=O)N(C)[C@H](C(=O)N(C)C)CC(=O)N1C` [PP2640] was tested, and the “NRAS/KRAS (ratio of KD value with respect to GDP-bound NRAS wild-type protein to KD value with respect to KRAS)” value [1, 3] was “AA (a compound having 20 or more is denoted as AA)” and the “HRAS/KRAS (ratio of KD value with respect to GDP-bound HRAS wild-type protein to KD value with respect to KRAS)” value [2, 4] was “A (a compound having 10 or more and less than 20 is denoted as A)”.

For `CCO[C@@H]1C[C@H]2C(=O)NC3(CCC3)C(=O)N(C)[C@@H](C3CCCC3)C(=O)N(C)[C@H](C(=O)N(C)C)CC(=O)N(C)[C@@H](CC3CCCC3)C(=O)N[C@@H]([C@@H](C)CC)C(=O)N(C)CC(=O)N(C)[C@H]3C/C=C\CCN(C3=O)[C@@H](Cc3ccc(C)cc3)C(=O)N(C)CC(=O)N[C@@H](CCc3ccc(C4CC4)c(Cl)c3)C(=O)N2C1` [PP2684], the “NRAS/KRAS (ratio of KD value with respect to GDP-bound NRAS wild-type protein to KD value with respect to KRAS)” value [1, 3] was “A (a compound having 10 or more and less than 20 is denoted as A)” and the “HRAS/KRAS (ratio of KD value with respect to GDP-bound HRAS wild-type protein to KD value with respect to KRAS)” value [2, 4] was “A (a compound having 10 or more and less than 20 is denoted as A)”.

For `CC[C@H](C)[C@@H]1NC(=O)[C@H](CC(C)C)N(C)C(=O)C[C@@H](C(=O)N2CCOCC2)N(C)C(=O)[C@H](C2CCCC2)N(C)C(=O)C2(CCCC2)NC(=O)[C@@H]2CCCN2C(=O)[C@H](CCc2cc(F)c(C(F)(F)F)c(F)c2)NC(=O)CN(C)C(=O)[C@H](Cc2ccc(C(F)(F)F)cc2)N2CCCC[C@@H](C2=O)N(C)C(=O)[C@H](C)NC1=O` [PP0543], the “NRAS/KRAS (ratio of KD value with respect to GDP-bound NRAS wild-type protein to KD value with respect to KRAS)” value ([1]; KD ratio NRAS/KRAS, SPR) was “B (a compound having 3 or more and less than 10 is denoted as B)” and the “HRAS/KRAS (ratio of KD value with respect to GDP-bound HRAS wild-type protein to KD value with respect to KRAS)” value ([2]; KD ratio HRAS/KRAS, SPR) was “B (a compound having 3 or more and less than 10 is denoted as B)”.
